One data set deals with T1, human GPR40 (Homo sapiens, UniProt O14842).
T1 construct: expressed in transfected cells; host or cells: CHO(dhfr-) cells: line CHO-hGPR40 No. 104 of WO2004/041266, with a stably expressed NFAT-TA-Luc reporter (CHO(dhfr-)/GPR40-NFAT-Luc)
Briefly: GPR40 antagonist activity with changes in intracellular calcium concentration as index (NFAT-luciferase reporter, CHO(dhfr-)/GPR40-NFAT-Luc cells). As to conditions: CHO cell line expressing human GPR40, NFAT-Luc reporter; GPR40 agonist 3-(4-((6-benzyloxy-2',6'-dimethyl-biphenyl-3-yl)methoxy)phenyl)propanoic acid 40 nM; 4 hr culture; 0.1% fatty acid-free BSA. It is filed as cell-based. In general terms: A change in cytosolic calcium serves as a functional read-out for many receptors and channels.

The subject of another data set is rat pancreatic islet. The experiment in a line: Insulin secretion suppressive activity using rat pancreatic islet (palmitic acid stimulation). It is filed as cell-based. The note with it: glucose 16 mM, compound 10 μM, 30 min, mean ± SD (n = 4). As for the experimental part:
The effect of the compound of the present invention on the insulin secretion from the rat pancreatic islet, which is induced by palmitic acid stimulation, was evaluated.
Male SD rats (7-week-old, Clea Japan, Inc.) were anesthetized with Nembutal (50 mg/kg, i.p.) and subjected to laparotomy. While confirming and following the course of the common bile duct to the peripheral thereof, and the duct was ligated at the liver side immediately from the opening of the duodenum. Then, the common bile duct was detached from the surrounding tissue on the duodenum side from the hepatic duct bifurcation and a thread was placed thereon. An indwelling needle (22G, manufactured by TERUMO CORPORATION) was inserted into the common bile duct at a position on the liver side from this part and fixed by ligation with the thread placed earlier thereon. 10 ml of 150 mg/ml collagenase (manufactured by Wako Pure Chemical Industries, Ltd., for cell dispersion)-Hank's Balanced Salt Solution (HBSS, manufactured by Invitrogen)-1% Bovine Serum Albumin (BSA, manufactured by Wako Pure Chemical Industries, Ltd.) −0.01 mg/ml DnaseI (manufactured by Roche Molecular Biochemicals)-2.5% N-2-Hydroxyethylpiperazine-N′-2-Ethane Sulfonic Acid (HEPES, manufactured by Invitrogen) was injected from the common bile duct. […]

Broadly, the IC50 is the concentration at which inhibition is half-maximal. What is called melting point is the temperature of the solid-liquid transition.

T1 sequence (O14842 whole entry): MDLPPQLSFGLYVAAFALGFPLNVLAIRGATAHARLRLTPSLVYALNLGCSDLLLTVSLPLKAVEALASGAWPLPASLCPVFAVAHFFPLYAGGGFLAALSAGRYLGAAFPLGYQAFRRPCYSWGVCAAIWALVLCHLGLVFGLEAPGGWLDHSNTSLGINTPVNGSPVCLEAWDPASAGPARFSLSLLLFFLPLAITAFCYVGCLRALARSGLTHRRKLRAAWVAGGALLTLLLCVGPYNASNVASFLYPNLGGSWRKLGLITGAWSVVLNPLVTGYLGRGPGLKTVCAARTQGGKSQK

The molecule `CCOc1ccc(-n2c(SCc3ccc(Cl)cc3)nc3ccc(Cl)cc32)cc1` [Example 10, 6-chloro-2-[(4-chlorobenzyl)thio]-1-(4-ethoxyphenyl)-1H-benzimidazole] gave a melting point of 129 to 130 °C. The IC50 at human GPR40 was < 100 nM. In the data set on rat pancreatic islet (palmitic acid 0 mM), this molecule had an insulin secretion amount of 353 ± 122 pg/ng DNA. In addition, in the data set on rat pancreatic islet (palmitic acid 1 mM), the insulin secretion amount was found to be 369 ± 141 pg/ng DNA.

The values above are taken from patent US20080021069A1, “Receptor Function Regulating Agent” (TAKEDA PHARMACEUTICAL COMPANY LIMITED, priority 2004, published 2008).
